These results are taken from PubChem BioAssay AID1259407 (Chemical Carcinogenesis Research Information System (CCRIS), 2018).

This data set has as its system CCRIS mutagenicity, Ames/micronucleus/aberration tests. In words: CCRIS mutagenicity studies.
The mark [1] stands for this setting: Test System: AMES SALMONELLA TYPHIMURIUM, Strain/Indicator: TA100, Metabolic Activation: NONE, Method: PREINCUBATION
Where [2] appears, read: Test System: AMES SALMONELLA TYPHIMURIUM, Strain/Indicator: TA100, Metabolic Activation: NONE, Method: STANDARD PLATE.

Each structure is given as a SMILES string. The source made the active and inactive calls. How the calls were made is not given here.

For the molecule `Nc1ccc2c(ccc3c4ccccc4ccc23)c1`, the mutagenic call (Test System: AMES SALMONELLA TYPHIMURIUM, Strain/Indicator: TA98, Metabolic Activation: RAT LIVER S-9, AROCLOR 1254 (10%), Method: STANDARD PLATE) is “active; positive”; the mutagenic call (Test System: AMES SALMONELLA TYPHIMURIUM, Strain/Indicator: TA98, Metabolic Activation: RAT, LIVER, CYTOSOL, AROCLOR 1254, Method: STANDARD PLATE) is “active; positive”; the mutagenic call (Test System: AMES SALMONELLA TYPHIMURIUM, Strain/Indicator: TA98, Metabolic Activation: RAT, LIVER, MICROSOMES, AROCLOR 1254, Method: STANDARD PLATE) was “active; positive”.
Regarding `CC1(c2ccccc2)CO1` (stereo not given), the mutagenic call under setting [1] is “active; positive”.
For `N/C(=N\O)c1ccc(O)c(O)c1`, the mutagenic call is, setting by setting: (Test System: AMES SALMONELLA TYPHIMURIUM, Strain/Indicator: TA97, Metabolic Activation: NONE, Method: STANDARD PLATE) “inactive; negative”; (Test System: AMES SALMONELLA TYPHIMURIUM, Strain/Indicator: TA97, Metabolic Activation: RAT, LIVER, S-9, DELOR 103, Method: STANDARD PLATE) “inactive; negative”; (Test System: AMES SALMONELLA TYPHIMURIUM, Strain/Indicator: TA98, Metabolic Activation: NONE, Method: STANDARD PLATE) “inactive; negative”; (Test System: AMES SALMONELLA TYPHIMURIUM, Strain/Indicator: TA98, Metabolic Activation: RAT, LIVER, S-9, DELOR 103, Method: STANDARD PLATE) “active; positive”; under setting [2], “inactive; negative”; (Test System: AMES SALMONELLA TYPHIMURIUM, Strain/Indicator: TA100, Metabolic Activation: RAT, LIVER, S-9, DELOR 103, Method: STANDARD PLATE) “inactive; negative”. The mutagenic call runs as follows: (Test System: AMES SALMONELLA TYPHIMURIUM, Strain/Indicator: TA102, Metabolic Activation: NONE, Method: STANDARD PLATE) “inactive; negative”; (Test System: AMES SALMONELLA TYPHIMURIUM, Strain/Indicator: TA102, Metabolic Activation: RAT, LIVER, S-9, DELOR 103, Method: STANDARD PLATE) “inactive; negative”.
On to `O=C(O)c1cc2c(c3c1c([N+](=O)[O-])cc1ccccc13)OCO2`, for which the mutagenic call (Test System: AMES SALMONELLA TYPHIMURIUM, Strain/Indicator: TA98, Metabolic Activation: RAT, LIVER, S-9, Method: STANDARD PLATE) was “inactive; negative”; the mutagenic call under setting [2] is “active; positive”; the mutagenic call (Test System: AMES SALMONELLA TYPHIMURIUM, Strain/Indicator: TA100, Metabolic Activation: RAT, LIVER, CYTOSOL, Method: STANDARD PLATE) was “active; positive”; the mutagenic call (Test System: AMES SALMONELLA TYPHIMURIUM, Strain/Indicator: TA100, Metabolic Activation: RAT, LIVER, MICROSOMES, Method: STANDARD PLATE) was “active; positive”; the mutagenic call (Test System: AMES SALMONELLA TYPHIMURIUM, Strain/Indicator: TA100, Metabolic Activation: RAT, LIVER, S-9, 3-METHYLCHOLANTHRENE, Method: STANDARD PLATE) is “active; positive”; the mutagenic call (Test System: AMES SALMONELLA TYPHIMURIUM, Strain/Indicator: TA1537, Metabolic Activation: NONE, Method: STANDARD PLATE) was “active; positive”. Moreover, the mutagenic call reads like this: (Test System: AMES SALMONELLA TYPHIMURIUM, Strain/Indicator: YG1020, Metabolic Activation: NONE, Method: STANDARD PLATE) “active; positive”; (Test System: AMES SALMONELLA TYPHIMURIUM, Strain/Indicator: YG1021, Metabolic Activation: NONE, Method: STANDARD PLATE) “active; positive”; (Test System: AMES SALMONELLA TYPHIMURIUM, Strain/Indicator: YG1024, Metabolic Activation: NONE, Method: STANDARD PLATE) “active; positive”; (Test System: AMES SALMONELLA TYPHIMURIUM, Strain/Indicator: YG1025, Metabolic Activation: NONE, Method: STANDARD PLATE) “active; positive”; (Test System: AMES SALMONELLA TYPHIMURIUM, Strain/Indicator: YG1026, Metabolic Activation: NONE, Method: STANDARD PLATE) “active; positive”; (Test System: AMES SALMONELLA TYPHIMURIUM, Strain/Indicator: YG1029, Metabolic Activation: NONE, Method: STANDARD PLATE) “active; positive”.
As for `O=Nc1cc2c3ccccc3ccc2c2ccccc12`, the mutagenic call was “active; positive” (Test System: AMES SALMONELLA TYPHIMURIUM, Strain/Indicator: TA98, Metabolic Activation: NONE, Method: PREINCUBATION); “active; positive” (Test System: AMES SALMONELLA TYPHIMURIUM, Strain/Indicator: TA98, Metabolic Activation: RAT, LIVER, S-9, AROCLOR 1254, Method: PREINCUBATION); “active; positive” under setting [1]; “active; positive” (Test System: AMES SALMONELLA TYPHIMURIUM, Strain/Indicator: TA100, Metabolic Activation: RAT, LIVER, S-9, AROCLOR 1254, Method: PREINCUBATION); “active; positive” (Test System: CHINESE HAMSTER OVARY, Strain/Indicator: CHO-K1-BH4 (HGPRT)/6-THIOGUANINE, Metabolic Activation: NONE, Method: STANDARD PLATE); “active; positive” (Test System: CHINESE HAMSTER OVARY, Strain/Indicator: CHO-UV5 (HGPRT)/6-THIOGUANINE, Metabolic Activation: NONE, Method: STANDARD PLATE).
Regarding `CNC(=O)Oc1cccc2c1OC(C)(C)C2=O`, the mutagenic call (End Point: IN VIVO MICRONUCLEUS, Test System: BONE MARROW POLYCHROMATIC ERYTHROCYTES, Species: MOUSE, Strain/Sex: KM/MALE, FEMALE, Route: IP INJECTION) is “inactive; negative”.
For `Cc1cc(-c2ccccc2C)ccc1N`, the mutagenic call is, setting by setting: (Test System: AMES SALMONELLA TYPHIMURIUM, Strain/Indicator: TA98, Metabolic Activation: RAT, LIVER, S-9, AROCLOR 1254, Method: STANDARD PLATE) “active; positive”; (Test System: AMES SALMONELLA TYPHIMURIUM, Strain/Indicator: TA100, Metabolic Activation: RAT, LIVER, S-9, AROCLOR 1254, Method: STANDARD PLATE) “active; positive”; (Test System: AMES SALMONELLA TYPHIMURIUM, Strain/Indicator: TA1538, Metabolic Activation: RAT, LIVER, S-9, AROCLOR 1254, Method: STANDARD PLATE) “active; positive”; (Test System: UDS RODENT HEPATOCYTES, Strain/Indicator: THY INCORP (NON-S-PHASE), Method: AUTORADIOGRAPHY) “active; positive”.
